Experiments:
[1] = system: sputum cells (dysplastic, pre-cancerous and cancerous cells); experiment: Glass slide assay for detection of pre-cancerous and cancerous cells with TCPP (fluorescence microscopy of sputum monolayer slides vs PAP-stain cytomorphology); format: cell-based, human; details: for Slides with morphology using TCPP/Slides with morphology using cytomorphology: N = 60 blinded sputum samples, 40 μg/mL TCPP
[2] = Maximum solubility of TCPP in saline or blood; format: physicochemical
[3] = system: cancerous cells of the lung; details: incubation of a cell sample for 6-24 hours with 200 μg/ml TCPP; cited from earlier work
[4] = of the six TCPP samples with class 11 designation

## O=C(O)c1ccc(-c2c3nc(c(-c4ccc(C(=O)O)cc4)c4ccc([nH]4)c(-c4ccc(C(=O)O)cc4)c4nc(c(-c5ccc(C(=O)O)cc5)c5ccc2[nH]5)C=C4)C=C3)cc1 [TCPP]
[1]; 9 = Degenerated cell clusters, medium to high fluorescence, Severe dysplasia (n = 8)
  Number of Samples with Cells having Numerical Description by TCPP Fluorescence Microscopy/Number of Samples with Cell Description by Cytmorphology: 0/8
[1]; 10 = Cells uniform size with small round nucleus, medium fluorescence (nucleus only), Adenicarcinoma, squamous cell and small cell carcinoma (n = 10)
  Number of Samples with Cells having Numerical Description by TCPP Fluorescence Microscopy/Number of Samples with Cell Description by Cytmorphology: 2/10
[1]; 10 = Cells uniform size with small round nucleus, medium fluorescence (nucleus only), Carcinoma in situ (n = 11)
  Number of Samples with Cells having Numerical Description by TCPP Fluorescence Microscopy/Number of Samples with Cell Description by Cytmorphology: 1/11
[1]; 10 = Cells uniform size with small round nucleus, medium fluorescence (nucleus only), Mild dysplasia (n = 12)
  Number of Samples with Cells having Numerical Description by TCPP Fluorescence Microscopy/Number of Samples with Cell Description by Cytmorphology: 2/12
[1]; 10 = Cells uniform size with small round nucleus, medium fluorescence (nucleus only), Moderate dysplasia (n = 9)
  Number of Samples with Cells having Numerical Description by TCPP Fluorescence Microscopy/Number of Samples with Cell Description by Cytmorphology: 2/9
[1]; 10 = Cells uniform size with small round nucleus, medium fluorescence (nucleus only), Negative or metaplastic (n = 10)
  Number of Samples with Cells having Numerical Description by TCPP Fluorescence Microscopy/Number of Samples with Cell Description by Cytmorphology: 2/10
[1]; 10 = Cells uniform size with small round nucleus, medium fluorescence (nucleus only), Severe dysplasia (n = 8)
  Number of Samples with Cells having Numerical Description by TCPP Fluorescence Microscopy/Number of Samples with Cell Description by Cytmorphology: 1/8
[1]; 11 = Cell membrane barely visible, medium fluorescence, Adenicarcinoma, squamous cell and small cell carcinoma (n = 10)
  Number of Samples with Cells having Numerical Description by TCPP Fluorescence Microscopy/Number of Samples with Cell Description by Cytmorphology: 0/10
[1]; 11 = Cell membrane barely visible, medium fluorescence, Carcinoma in situ (n = 11)
  Number of Samples with Cells having Numerical Description by TCPP Fluorescence Microscopy/Number of Samples with Cell Description by Cytmorphology: 2/11
[1]; 11 = Cell membrane barely visible, medium fluorescence, Mild dysplasia (n = 12)
  Number of Samples with Cells having Numerical Description by TCPP Fluorescence Microscopy/Number of Samples with Cell Description by Cytmorphology: 6/12
[1]; 11 = Cell membrane barely visible, medium fluorescence, Moderate dysplasia (n = 9)
  Number of Samples with Cells having Numerical Description by TCPP Fluorescence Microscopy/Number of Samples with Cell Description by Cytmorphology: 2/9
[1]; 11 = Cell membrane barely visible, medium fluorescence, Negative or metaplastic (n = 10)
  Number of Samples with Cells having Numerical Description by TCPP Fluorescence Microscopy/Number of Samples with Cell Description by Cytmorphology: 6/10
[1]; 11 = Cell membrane barely visible, medium fluorescence, Severe dysplasia (n = 8)
  Number of Samples with Cells having Numerical Description by TCPP Fluorescence Microscopy/Number of Samples with Cell Description by Cytmorphology: 2/8
[1]; 12 = Nuclear debris clumps, no fluorescence, Adenicarcinoma, squamous cell and small cell carcinoma (n = 10)
  Number of Samples with Cells having Numerical Description by TCPP Fluorescence Microscopy/Number of Samples with Cell Description by Cytmorphology: 0/10
[1]; 12 = Nuclear debris clumps, no fluorescence, Carcinoma in situ (n = 11)
  Number of Samples with Cells having Numerical Description by TCPP Fluorescence Microscopy/Number of Samples with Cell Description by Cytmorphology: 0/11
[1]; 12 = Nuclear debris clumps, no fluorescence, Mild dysplasia (n = 12)
  Number of Samples with Cells having Numerical Description by TCPP Fluorescence Microscopy/Number of Samples with Cell Description by Cytmorphology: 1/12
[1]; 12 = Nuclear debris clumps, no fluorescence, Moderate dysplasia (n = 9)
  Number of Samples with Cells having Numerical Description by TCPP Fluorescence Microscopy/Number of Samples with Cell Description by Cytmorphology: 0/9
[1]; 12 = Nuclear debris clumps, no fluorescence, Negative or metaplastic (n = 10)
  Number of Samples with Cells having Numerical Description by TCPP Fluorescence Microscopy/Number of Samples with Cell Description by Cytmorphology: 0/10
[1]; 12 = Nuclear debris clumps, no fluorescence, Severe dysplasia (n = 8)
  Number of Samples with Cells having Numerical Description by TCPP Fluorescence Microscopy/Number of Samples with Cell Description by Cytmorphology: 0/8
[1]; 13 = Nuclear debris background, no fluorescence, Adenicarcinoma, squamous cell and small cell carcinoma (n = 10)
  Number of Samples with Cells having Numerical Description by TCPP Fluorescence Microscopy/Number of Samples with Cell Description by Cytmorphology: 3/10
[1]; 13 = Nuclear debris background, no fluorescence, Carcinoma in situ (n = 11)
  Number of Samples with Cells having Numerical Description by TCPP Fluorescence Microscopy/Number of Samples with Cell Description by Cytmorphology: 5/11
[1]; 13 = Nuclear debris background, no fluorescence, Mild dysplasia (n = 12)
  Number of Samples with Cells having Numerical Description by TCPP Fluorescence Microscopy/Number of Samples with Cell Description by Cytmorphology: 5/12
[1]; 13 = Nuclear debris background, no fluorescence, Moderate dysplasia (n = 9)
  Number of Samples with Cells having Numerical Description by TCPP Fluorescence Microscopy/Number of Samples with Cell Description by Cytmorphology: 8/9
[1]; 13 = Nuclear debris background, no fluorescence, Negative or metaplastic (n = 10)
  Number of Samples with Cells having Numerical Description by TCPP Fluorescence Microscopy/Number of Samples with Cell Description by Cytmorphology: 6/10
[1]; 13 = Nuclear debris background, no fluorescence, Severe dysplasia (n = 8)
  Number of Samples with Cells having Numerical Description by TCPP Fluorescence Microscopy/Number of Samples with Cell Description by Cytmorphology: 2/8
[1]; 14 = Nuclear debris background, medium fluorescence, Adenicarcinoma, squamous cell and small cell carcinoma (n = 10)
  Number of Samples with Cells having Numerical Description by TCPP Fluorescence Microscopy/Number of Samples with Cell Description by Cytmorphology: 0/10
[1]; 14 = Nuclear debris background, medium fluorescence, Carcinoma in situ (n = 11)
  Number of Samples with Cells having Numerical Description by TCPP Fluorescence Microscopy/Number of Samples with Cell Description by Cytmorphology: 1/11
[1]; 14 = Nuclear debris background, medium fluorescence, Mild dysplasia (n = 12)
  Number of Samples with Cells having Numerical Description by TCPP Fluorescence Microscopy/Number of Samples with Cell Description by Cytmorphology: 2/12
[1]; 14 = Nuclear debris background, medium fluorescence, Moderate dysplasia (n = 9)
  Number of Samples with Cells having Numerical Description by TCPP Fluorescence Microscopy/Number of Samples with Cell Description by Cytmorphology: 2/9
[1]; 14 = Nuclear debris background, medium fluorescence, Negative or metaplastic (n = 10)
  Number of Samples with Cells having Numerical Description by TCPP Fluorescence Microscopy/Number of Samples with Cell Description by Cytmorphology: 1/10
[1]; 14 = Nuclear debris background, medium fluorescence, Severe dysplasia (n = 8)
  Number of Samples with Cells having Numerical Description by TCPP Fluorescence Microscopy/Number of Samples with Cell Description by Cytmorphology: 1/8
[1]; Adenicarcinoma, squamous cell and small cell carcinoma (n = 10)
  Avg. # numerical descriptions per cell examined: 4.90
[1]; Adenocarcinoma, squamous cell and small cell carcinoma
  Slides with morphology using TCPP/Slides with morphology using cytomorphology: 10/10
[1]; Carcinoma in situ (n = 11)
  Avg. # numerical descriptions per cell examined: 4.82
[1]; Carcinoma in situ
  Slides with morphology using TCPP/Slides with morphology using cytomorphology: 11/11
[1]; Mild dysplasia (n = 12)
  Avg. # numerical descriptions per cell examined: 3.08
[1]; Mild dysplasia
  Slides with morphology using TCPP/Slides with morphology using cytomorphology: 12/12
[1]; Moderate dysplasia (n = 9)
  Avg. # numerical descriptions per cell examined: 4.11
[1]; Moderate dysplasia
  Slides with morphology using TCPP/Slides with morphology using cytomorphology: 9/9
[1]; Negative or metaplastic (n = 10)
  Avg. # numerical descriptions per cell examined: 1.80
[1]; Negative or metaplastic, 10 minutes, 36° C.
  Slides with morphology using TCPP/Slides with morphology using cytomorphology: 4/10
[1]; Severe dysplasia (n = 8)
  Avg. # numerical descriptions per cell examined: 3.13
[1]; Severe dysplasia
  Slides with morphology using TCPP/Slides with morphology using cytomorphology: 8/8
[1]; among the ten samples characterized as normal or metaplastic by PAP-staining
  Samples demonstrating the same morphology using the TCPP method: four
[1]; blinded study, 60 samples
  Sputum samples mildly dysplastic to cancerous by PAP-staining also identified as abnormal by TCPP detection: Fifty out of fifty
[1]; cells displaying adenicarcinoma, squamous cell and small cell carcinoma
  Average number of numerical classifications assigned: 5
[1]; cells having a negative or metaplastic morphology
  Average number of numerical classifications assigned: 2
[1]; [4]
  Samples also indicating fluorescence from nuclear debris (class 13 or 14): three
  Samples also showing class 10 designation (fluorescence from the nucleus only): two
[1]; of the ten cell samples negative or metaplastic by PAP-staining
  Samples designated with a class 11 cell description based on TCPP fluorescence: 6
[1]; samples diagnosed as normal
  TCPP uptake: minimal or no TCPP uptake
[1]; sputum monolayer slides
  TCPP-exposed cells fluorescing at which the sample reliably correlated with at least the mildly dysplastic diagnosis: 2-3%
[2]
  Maximum solubility in saline or blood: about 100 μg/mL
[3]
  Cellular uptake and localisation of TCPP: bound to the perinuclear membrane and mitochondria of neoplastic cells
